# Results: patent publication US20130109682A1, “CYCLIC ETHER COMPOUNDS USEFUL AS KINASE INHIBITORS” (NOVARTIS AG, priority 2010, published 2013)
# Experiments:
# PIM2 = PIM2 (Homo sapiens, UniProt Q9P1W9); experiment: Pim 2 AlphaScreen assay (high ATP); assay type: biochemical; settings: read-out: Pim2 IC50
# Protocol: Pim1, Pim2, Pim3 AlphaScreen Assay Pim 1, Pim 2 & Pim 3 AlphaScreen assays using high ATP (11-125×ATP Km) were used to determine the biochemical activity of the inhibitors. The activity of Pim 1, Pim 2, & Pim 3 is measured using a homogeneous bead based system quantifying the amount of phosphorylated peptide substrate resulting from kinase-catalyzed phosphoryl transfer to a peptide substrate. Compounds to be tested are dissolved in 100% DMSO and directly distributed to a white 384-well plate at […] per well. To start the reaction, 5 μl of 100 nM Bad peptide (Biotin-AGAGRSRHSSYPAGT —OH) and ATP (concentrations described below) in assay buffer (50 mM Hepes, pH=7.5, 5 mM MgCl2, 0.05% BSA, 0.01% Tween-20, 1 mM DTT) is added to each well. This is followed by the addition of 5 μl/well of Pim 1, Pim 2 or Pim 3 kinase in assay buffer (concentrations described below). Final assay concentrations (described below) are in 2.5% DMSO. The reactions are performed for ˜2 hours, then stopped by the addition of 10 μl of 0.75 μg/ml anti-phospho Ser/Thr antibody (Cell Signaling), 10 μg/ml Protein A AlphaScreen beads (Perkin Elmer), and 10 μg/ml streptavidin coated AlphaScreen beads in stop/detection buffer (50 mM EDTA, 95 mM Tris, pH=7.5, 0.01% Tween-20). The stopped reactions are incubated overnight in the dark. The phosphorylated peptide is detected via an […] initiated chemiluminescence/fluorescence cascade using the Envision plate reader (Perkin Elmer).
# IC50, the half maximal inhibitory concentration, represents the concentration of a test compound that is required for 50% inhibition of its target in vitro under the described assay conditions.
# GSK3β = GSK3β (Homo sapiens, UniProt P49841); experiment: GSK3β ATP depletion assay; assay type: biochemical; settings: ATP depletion assay; read-out: GSK3b IC50
# Outline: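 Human GSK3β (5 nM) preincubated 15 min with 10 μM biotinylated phospho-CREB peptide in pH 7.5 Tris buffer (15 mM MgCl2, 1 mM DTT, 0.1% BSA, 2.5% DMSO). Reaction started with 2 μM ATP and run to about 50% ATP depletion. Remaining ATP measured by KinaseGlo luminescence.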
# PIM2, sequence (Q9P1W9 whole entry): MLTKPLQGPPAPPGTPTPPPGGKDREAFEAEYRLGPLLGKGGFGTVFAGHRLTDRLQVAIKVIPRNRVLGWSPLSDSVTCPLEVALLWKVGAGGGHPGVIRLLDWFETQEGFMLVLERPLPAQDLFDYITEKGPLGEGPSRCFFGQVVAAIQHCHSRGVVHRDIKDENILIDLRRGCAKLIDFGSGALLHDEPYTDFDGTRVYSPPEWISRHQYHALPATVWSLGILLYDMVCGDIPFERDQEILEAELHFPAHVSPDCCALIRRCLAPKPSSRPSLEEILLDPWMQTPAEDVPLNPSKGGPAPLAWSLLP
# GSK3β, sequence (P49841 whole entry, species assumed): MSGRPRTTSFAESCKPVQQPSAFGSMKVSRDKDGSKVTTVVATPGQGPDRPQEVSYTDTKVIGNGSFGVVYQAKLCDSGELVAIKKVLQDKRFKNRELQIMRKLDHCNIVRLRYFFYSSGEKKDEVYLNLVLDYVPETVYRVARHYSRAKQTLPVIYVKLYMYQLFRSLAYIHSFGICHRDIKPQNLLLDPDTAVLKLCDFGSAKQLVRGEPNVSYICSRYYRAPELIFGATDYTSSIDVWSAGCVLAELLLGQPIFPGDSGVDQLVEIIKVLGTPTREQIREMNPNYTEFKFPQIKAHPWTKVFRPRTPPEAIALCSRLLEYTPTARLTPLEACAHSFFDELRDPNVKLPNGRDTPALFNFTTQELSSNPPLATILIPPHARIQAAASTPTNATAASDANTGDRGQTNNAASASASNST
Structure (SMILES),IC50 (PIM2),IC50 (GSK3β)
"CC[C@]1(O)[C@H](N)CC(c2ccncc2NC(=O)c2ccc(F)c(-c3c(F)cc(S(C)(=O)=O)cc3F)n2)O[C@@H]1C (stereo in doubt) [Example 284, N-(4-((2S,4R,5S,6R)-4-amino-5-ethyl-5-hydroxy-6-methyltetrahydro-2H-pyran-2-yl)pyridin-3-yl)-6-(2,6-difluoro-4-(methylsulfonyl)phenyl)-5-fluoropicolinamide]",59.1 nM,619 nM
"CC(C)(C)[C@H]1O[C@@H](c2ccncc2NC(=O)c2ccc(F)c(-c3c(F)cccc3F)n2)C[C@H](N)[C@@H]1O [Example 278, N-(4-((2R,4S,5S,6R)-4-amino-6-(tert-butyl)-5-hydroxytetrahydro-2H-pyran-2-yl)pyridin-3-yl)-6-(2,6-difluorophenyl)-5-fluoropicolinamide]",70.7 nM,9700 nM
"C[C@]1(O)[C@@H](N)C[C@H](c2ccncc2NC(=O)c2ccc(F)c(-c3c(F)cccc3F)n2)OC12CC2 [Example 287, N-(4-((5R,7S,8S)-7-amino-8-hydroxy-8-methyl-4-oxaspiro[2.5]octan-5-yl)pyridin-3-yl)-6-(2,6-difluorophenyl)-5-fluoropicolinamide]",388 nM,1500 nM
"C[C@@]1(O)[C@H](N)C[C@@H](c2ccncc2NC(=O)c2ccc(F)c(-c3c(F)cccc3F)n2)OC12CC2 [Example 288, N-(4-((5S,7R,8R)-7-amino-8-hydroxy-8-methyl-4-oxaspiro[2.5]octan-5-yl)pyridin-3-yl)-6-(2,6-difluorophenyl)-5-fluoropicolinamide]",272 nM,16300 nM
"CC1(C)C[C@@H](N)C[C@H](c2ccncc2NC(=O)c2ccc(F)c(-c3c(F)cccc3F)n2)O1 [Example 298, N-(4-((2R,4S)-4-amino-6,6-dimethyltetrahydro-2H-pyran-2-yl)pyridin-3-yl)-6-(2,6-difluorophenyl)-5-fluoropicolinamide]",234 nM,4940 nM
"CC(C)[C@H]1C[C@@H](N)C[C@@H](c2ccncc2NC(=O)c2ccc(F)c(-c3c(F)cccc3F)n2)O1 [Example 301, N-(4-((2S,4R,6R)-4-amino-6-isopropyltetrahydro-2H-pyran-2-yl)pyridin-3-yl)-6-(2,6-difluorophenyl)-5-fluoropicolinamide]",159 nM,20700 nM
"CC(C)[C@H]1C[C@@H](N)C[C@@H](c2ccncc2NC(=O)c2ccc(F)c(-c3c(F)cc(S(C)(=O)=O)cc3F)n2)O1 [Example 303, N-(4-((2S,4R,6R)-4-amino-6-isopropyltetrahydro-2H-pyran-2-yl)pyridin-3-yl)-6-(2,6-difluoro-4-(methylsulfonyl)phenyl)-5-fluoropicolinamide]",1250 nM,10300 nM
"CC(C)[C@H]1O[C@@H](c2ccncc2NC(=O)c2ccnc(-n3ccc(=O)cc3)n2)C[C@@H](N)[C@@H]1O [Example 304, N-(4-((2R,4R,5S,6R)-4-amino-5-hydroxy-6-isopropyltetrahydro-2H-pyran-2-yl)pyridin-3-yl)-2-(4-oxopyridin-1(4H)-yl)pyrimidine-4-carboxamide]",> 25000 nM,> 25000 nM
"CC(C)[C@H]1O[C@@H](c2ccncc2NC(=O)c2ccc(F)c(-c3ccccc3)n2)C[C@@H](N)[C@@H]1O [Example 309, N-(4-((2R,4R,5S,6R)-4-amino-5-hydroxy-6-isopropyltetrahydro-2H-pyran-2-yl)pyridin-3-yl)-5-fluoro-6-phenylpicolinamide]",131 nM,8120 nM
"CC(C)[C@H]1O[C@@H](c2ccncc2NC(=O)c2ccnc(-n3c(F)cccc3=O)n2)C[C@@H](N)[C@@H]1O [Example 310, N-(4-((2R,4R,5S,6R)-4-amino-5-hydroxy-6-isopropyltetrahydro-2H-pyran-2-yl)pyridin-3-yl)-2-(6-fluoro-2-oxopyridin-1(2H)-yl)pyrimidine-4-carboxamide]",6940 nM,3310 nM
"CC(C)[C@H]1O[C@@H](c2ccncc2NC(=O)c2ccc(F)c(-c3cccc(S(C)(=O)=O)c3)n2)C[C@@H](N)[C@@H]1O [Example 312, N-(4-((2R,4R,5S,6R)-4-amino-5-hydroxy-6-isopropyltetrahydro-2H-pyran-2-yl)pyridin-3-yl)-5-fluoro-6-(3-(methylsulfonyl)phenyl)picolinamide]",2480 nM,> 25000 nM

# More lines, in order of falling IC50 (PIM2), values ahead:
IC50 (PIM2),IC50 (GSK3β),Structure (SMILES)
7490 nM,–,"CC[C@@H]1O[C@H](c2ccncc2NC(=O)c2ccc(F)c(-c3c(F)cccc3F)n2)C[C@H](O)[C@@]1(C)O [Example 163, 6-(2,6-difluorophenyl)-N-(4-((2S,4S,5R,6S)-6-ethyl-4,5-dihydroxy-5-methyltetrahydro-2H-pyran-2-yl)pyridin-3-yl)-5-fluoropicolinamide]"
1660 nM,2820 nM,"CC(C)[C@H]1O[C@@H](c2ccncc2NC(=O)c2ccc(F)c(-c3ccc(S(C)(=O)=O)cc3)n2)C[C@@H](N)[C@@H]1O [Example 306, N-(4-((2R,4R,5S,6R)-4-amino-5-hydroxy-6-isopropyltetrahydro-2H-pyran-2-yl)pyridin-3-yl)-5-fluoro-6-(4-(methylsulfonyl)phenyl)picolinamide]"
345 nM,4300 nM,"CC(C)[C@H]1O[C@@H](c2ccncc2NC(=O)c2ccc(F)c(-c3cnc4[nH]ccc4c3)n2)C[C@@H](N)[C@@H]1O [Example 295, N-(4-((2R,4R,5S,6R)-4-amino-5-hydroxy-6-isopropyltetrahydro-2H-pyran-2-yl)pyridin-3-yl)-5-fluoro-6-(1H-pyrrolo[2,3-b]pyridin-5-yl)picolinamide]"
154 nM,950 nM,"CC(C)[C@H]1O[C@@H](c2ccncc2NC(=O)c2ccnc(-c3c(F)cccc3F)n2)C[C@@H](N)[C@@H]1O [Example 293, N-(4-((2R,4R,5S,6R)-4-amino-5-hydroxy-6-isopropyltetrahydro-2H-pyran-2-yl)pyridin-3-yl)-2-(2,6-difluorophenyl)pyrimidine-4-carboxamide]"
87.4 nM,12500 nM,"CC[C@H]1OC(c2ccncc2NC(=O)c2ccc(F)c(-c3c(F)cc(S(C)(=O)=O)cc3F)n2)C[C@@H](N)[C@]1(C)O (stereo in doubt) [Example 283, N-(4-((2S,4R,5S,6R)-4-amino-6-ethyl-5-hydroxy-5-methyltetrahydro-2H-pyran-2-yl)pyridin-3-yl)-6-(2,6-difluoro-4-(methylsulfonyl)phenyl)-5-fluoropicolinamide]"
84.6 nM,2300 nM,"C[C@H]1O[C@@H](c2ccncc2NC(=O)c2ccc(F)c(-c3ccc(N)nc3F)n2)C[C@@H](N)[C@]1(C)O [Example 311, 6′-amino-N-(4-((2R,4R,5S,6R)-4-amino-5-hydroxy-5,6-dimethyltetrahydro-2H-pyran-2-yl)pyridin-3-yl)-2′,3-difluoro-2,3′-bipyridine-6-carboxamide]"
68.5 nM,18300 nM,"CC(C)C(=O)Nc1ccc(F)c(-c2nc(C(=O)Nc3cnccc3[C@H]3C[C@@H](N)[C@H](O)[C@@H](C(C)C)O3)ccc2F)c1F [Example 308, N-(4-((2R,4R,5S,6R)-4-amino-5-hydroxy-6-isopropyltetrahydro-2H-pyran-2-yl)pyridin-3-yl)-6-(2,6-difluoro-3-isobutyramidophenyl)-5-fluoropicolinamide]"
50.1 nM,3420 nM,"CC(=O)Nc1ccc(F)c(-c2nc(C(=O)Nc3cnccc3C3C[C@@H](N)[C@H](O)[C@@H](C(C)C)O3)ccc2F)c1F (stereo in doubt) [Example 307, 6-(3-acetamido-2,6-difluorophenyl)-N-(4-((2S,4R,5S,6R)-4-amino-5-hydroxy-6-isopropyltetrahydro-2H-pyran-2-yl)pyridin-3-yl)-5-fluoropicolinamide]"
27.1 nM,548 nM,"CC(C)(C)[C@@H]1O[C@H](c2ccncc2NC(=O)c2ccc(F)c(-c3c(F)cccc3F)n2)C[C@@H](N)[C@H]1O [Example 279, N-(4-((2S,4R,5R,6S)-4-amino-6-(tert-butyl)-5-hydroxytetrahydro-2H-pyran-2-yl)pyridin-3-yl)-6-(2,6-difluorophenyl)-5-fluoropicolinamide]"
